These results are taken from PubChem BioAssay (NCI).

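Values below derive from 48-hour exposures of cells grown in 96-well plates, with endpoints linearly interpolated between the two concentrations bracketing the appropriate inhibition level. The concentration for 50% growth inhibition is given as GI50. TGI denotes the concentration required for complete inhibition of growth.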

Holding throughout (assay): DTP human tumour cell line panel, 48 h
Assay [1] relates to SK-MEL-5 melanoma.
Assay [2] has as its system MALME-3M melanoma.
Assay [3] relates to NCI-H226 lung.
Assay [4] relates to BT-549 breast.
The subject of assay [5] is HCT-15 colon.
In assay [6] the test system is PC-3 prostate.
Assay [7] concerns M14 melanoma.
Assay [8] has as its system NCI-H460 lung.
Assay [9] deals with 786-0 renal.

What is called GI50 is the concentration giving 50% growth inhibition. As usually defined, the TGI is the concentration at which net growth stops. The low end stands for more potent growth arrest, the high end for less potent growth arrest. In the case of `Cc1ccc2sc3c(NCCCN)nc4ccccc4c3c(=O)c2c1`, the GI50 was 1.79 µM in assay [1]; 1.74 µM in assay [2]; 1.84 µM in assay [3]; 16.5 µM in assay [4]; 1.61 µM in assay [5]; 1.71 µM in assay [6]. For the same molecule, the figures for the GI50 in assay [7] and in assay [8] were 1.91 µM and 1.84 µM, respectively. Moreover, the TGI was 3.35 µM in assay [1]; 3.3 µM in [2]; 3.66 µM in assay [3]; 37.4 µM in [4]; 3.15 µM in assay [5]; 3.4 µM in [6]. For the same molecule, the results for the TGI in [7] and in assay [8] were 3.61 µM and 3.56 µM, respectively.
For `CCOC(=O)c1sc2nc(SC)nc3c2c1NCN3C`, the TGI in assay [1] was more than 100 µM; in assay [2] it was 57.6 µM; in assay [3], more than 100 µM; in [9] it was 47.3 µM; in [4], more than 100 µM; in assay [5] it was more than 100 µM. Also, the TGI in assay [6], in [7] and in assay [8] was more than 100 µM each time.
`CC1(C)C2CC3C(C)(C2)C31c1cc(Cl)ccc1N` (stereo not given): the TGI in [1] was found to be 27.1 µM; in [2], 21.3 µM; in [3], 34.6 µM; in assay [9], 28.6 µM; in [4], 30 µM; in assay [5] it was 23 µM. Also, the concentration for total growth inhibition (TGI) in [6] was 27 µM; in assay [7] it was 24.8 µM; in assay [8] it was 28.9 µM.
In the case of `COc1cc2nc(-c3cccs3)nc(Nc3ccccc3C(=O)NN)c2cc1OC`, the TGI in assay [1], in assay [2], in assay [3], in [9], in assay [4] and in assay [5] was more than 100 µM in each case. Besides, the TGI in assay [6], in assay [7] and in [8] was more than 100 µM in each case.
For `O=C(O)C(Cc1ccccc1)Cc1ccccc1`, the TGI in assay [1], in assay [2], in assay [3], in assay [9], in assay [4] and in [5] was more than 100 µM each time. Moreover, the TGI in assay [6], in [7] and in [8] was more than 100 µM throughout.
On to `O=C(CC(=O)N1N=C(c2ccccc2)C(N=Nc2ccc(S(=O)(=O)CCOS(=O)(=O)O)cc2)C1=O)Nc1ccc(Cl)cc1` (stereo not given), for which the TGI in assay [1], in assay [2], in assay [3], in assay [9], in [4] and in assay [5] was more than 100 µM each time. Moreover, the TGI in assay [6], in assay [7] and in assay [8] was more than 100 µM throughout.
In the case of `c1ccc2c(c1)nnn2C1CCCCO1` (stereo not given), the TGI in assay [1], in assay [2], in [3], in assay [9], in assay [4] and in [5] was more than 100 µM throughout. For the same molecule, the TGI in [6], in [7] and in assay [8] was more than 100 µM throughout.
Consider `O=C(CSc1nc2ccc(I)cc2c(=O)n1Cc1ccccc1)Nc1ccccc1`, for which the TGI was more than 100 µM in assay [1]; 43.8 µM in assay [2]; 44.5 µM in assay [3]; 23.9 µM in assay [9]; 54.6 µM in [4]; more than 100 µM in assay [5]. Further, the TGI was 31.9 µM in assay [6] and more than 100 µM in assay [7].
For `OCc1ccc2c(c1)CC1(Cc3ccccc3C1)C2`, the TGI in [1] was 23.6 µM; in [2], 29.4 µM; in assay [3], more than 100 µM; in assay [9], 29.6 µM; in [4] it was 24.1 µM; in [5], more than 100 µM. For the same molecule, the TGI was 33.5 µM in assay [6] and 44.6 µM in assay [8].
In the case of `CC1(C)CCC2=C(O1)c1ccccc1C(=Nc1ccc([N+](=O)[O-])cc1)C2=O`, the TGI is 30.3 µM in assay [1]; 29.7 µM in assay [2]; 25.3 µM in [3]; 34.1 µM in assay [9]; 44 µM in assay [4]; more than 100 µM in assay [5]. Moreover, the values for the TGI in [6], in assay [7] and in assay [8] were 31.5 µM, 20.5 µM and 29.1 µM, respectively.
Take `C=CC(=O)N1C/C(=C\c2ccc(OC)cc2)C(=O)/C(=C/c2ccc(OC)cc2)C1`: the TGI was more than 20.4 µM in [1]; 8.4 µM in assay [2]; 4.6 µM in [3]; 4.17 µM in assay [9]; 6.24 µM in assay [4]; 4.23 µM in assay [5]. In addition, the TGI in assay [6] stood at 4.19 µM; in assay [7] it was 4.78 µM; in assay [8] it was 6.82 µM.
In the case of `C=C(C)C1(Sc2ccc(OC)cc2)CC1`, the TGI was 31.6 µM in assay [1]; 66.9 µM in assay [2]; 54.7 µM in [3]; more than 100 µM in assay [9]; 58 µM in assay [4]; more than 100 µM in assay [5]. Also, the TGI in [6], in [7] and in assay [8] was more than 100 µM each time.
As to `CCC[N+](C)(C)CCCNC(=O)c1c(O)c2ccccc2[nH]c1=O`, the TGI in assay [1] was 54.8 µM; in assay [2] it was more than 100 µM; in [3] it was more than 100 µM; in assay [9], more than 100 µM; in [4], more than 100 µM; in assay [5], more than 100 µM. Also, the TGI in assay [6] and in assay [8] was more than 100 µM in each case.
Turning to `C1=CC2C(C3CN(c4ccccc4)N=C13)C1C3C4C=CC21C=CC43` (stereo not given), the TGI in assay [1], in assay [2], in assay [3], in assay [9], in assay [4] and in assay [5] was more than 100 µM in each case. The TGI in assay [6], in assay [7] and in assay [8] was more than 100 µM throughout.
